Data as given in PMC3834177 (Cancer Chemotherapy and Pharmacology, 2013).
Where two headings read alike, the source gives them in different places. Marks after values point to notes of the source that are not given here.

What was measured:
CYP3A4/5 = conditions: in vitro; read-out: IC50, CYP3A4/5 activity (midazolam 1′-hydroxylation); cited from earlier work
[1] = cited from earlier work
[2] = tested on: human serum protein α1-acid glycoprotein (AAG); set-up: method as in PMID 11230495; conditions: cited from earlier work
mutant FLT3 = conditions: in vitro; read-out: half-maximal inhibitory concentration (IC50), mutant FLT3; cited from earlier work
[3] = Midostaurin PK when administered with rifampicin; conditions: for AUC(0-t) / Cmax / half-life / Tmax: human, plasma, oral, n = 20; for AUC(0-t): AUC0–last; for AUC(0-t) / Cmax: adjusted geometric mean; for Cmax: C max; for half-life: t 1/2, adjusted geometric mean; for Tmax: t max, median
Method: These endogenous molecules served as exploratory biomarkers for CYP3A4 activity in vivo [21, 22].
A point estimate and the corresponding 90 % CI for the treatment effect (test vs reference) were calculated. These were anti-logged to obtain the GMR and respective 90 % CI. […] The median difference was estimated with the Hodges–Lehmann estimator and its respective exact two-sided 90 % CI. All formal comparative statistical analyses were performed using SAS software.
(§1) The concentration of ketoconazole in plasma was assessed using a validated LC–MS/MS assay with an LLOQ of 50.0 ng/mL (WuXi Pharmatech Co, Ltd, China). The concentration of rifampicin in plasma was measured using a validated LC–MS/MS assay with an LLOQ of 5.0 ng/mL (SGS, Cephac Europe, SAS). Plasma concentrations of midazolam and its metabolite 1′-hydroxymidazolam, which is generated by CYP3A4 and CYP3A5 in humans, were measured using a validated LC–MS/MS assay with an LLOQ of ≈0.100 ng/mL (SGS, Cephac Europe, SAS). The plasma concentration of 4β-hydroxycholesterol was measured using a validated LC–MS/MS assay with an LLOQ of 3.0 ng/mL (SGS, Cephac Europe, SAS). The concentrations of 6β-hydroxycortisol and cortisol in urine were determined using validated LC–MS/MS assays with an LLOQ of 10.0 ng/mL for 6β-hydroxycortisol and 1.0 ng/mL for cortisol. The ratio of 6β-hydroxycortisol to cortisol was subsequently calculated (SGS, Cephac Europe, SAS). See Supplementary Table 2 for detailed bioanalytical methods for all 3 studies.

[4] = Midostaurin PK when administered with ketoconazole; conditions: for Cmax / Tmax: human, plasma, oral, n = 18; for Cmax: C max, adjusted geometric mean; for Tmax: t max, median
Method: According to the US Food and Drug Administration, ketoconazole 400 mg once daily is the recommended dose to evaluate DDIs involving CYP3A4 inhibition. [drawing 1]
Adverse events (AEs) were recorded during the study and up to 1 month (28 days) after the end of study. Volunteers remained at the clinic until AEs were common toxicity criteria (CTC) grade ≤1.
A point estimate and the corresponding 90 % CI for the treatment effect were calculated for the test treatment compared with the reference. These were anti-logged to obtain the point estimate and the 90 % CI for the geometric mean ratio (GMR) on the untransformed scale. […] All ANOVAs were performed using SAS software (SAS Institute Inc., Cary, NC, USA).
as §1

[5] = Midazolam PK when administered with midostaurin; conditions: for change in AUCinf: day 3 (co-administration of midostaurin) vs day 1; for AUC0–inf, adjusted geometric mean / AUC0–last, adjusted geometric mean / C max, adjusted geometric mean / t max, median / AUC(0-inf) / AUC(0-t) / Cmax: n = 18; for AUC(0-inf): AUC0–inf; for AUC(0-inf) / AUC(0-t) / Cmax: adjusted geometric mean; for AUC(0-t): AUC0–last; for Cmax: C max
Source text: (§2) Both inhibition and induction of midazolam clearance were investigated.
Similarly, blood and urine samples were taken on days 1, 3, 6, 7, 8, and 9 to measure the levels of 4β-hydroxycholesterol in plasma and the 6β-hydroxycortisol/cortisol ratio in urine, markers of CYP3A4 activity.
The PK parameters of midazolam and its metabolites (C max, t max, AUC0–last, AUCinf, and t 1/2) were derived using a noncompartmental method with the aid of WinNonLin 5.2. […] Following log transformation, the primary PK parameters were analyzed using a linear, mixed-effects model using the term of treatment as a fixed factor (reference, test 1, test 2) and subject as a random factor. A point estimate and the corresponding 90 % CI for the difference in test 1 versus reference and the difference in test 2 versus reference were derived from the respective contrasts of the model estimates and anti-logged to obtain the GMR and respective 90 % CI.
as §1

[6] = Safety and tolerability, midazolam study
Source text: as §2

[7] = Placebo + midostaurin arm, rifampicin study
[8] = Placebo + midostaurin arm, ketoconazole study
[9] = day 3 (co-administration of midostaurin) vs midazolam alone day 1
[10] = day 8 (after repeated doses of midostaurin) vs day 1
[11] = plasma, Midazolam + midostaurin (day 3)
[12] = human, plasma, oral, 4 mg, plasma, Midazolam (day 1)
[13] = human, plasma, oral, 4 mg, plasma, Midazolam (day 8)
[14] = human, plasma, oral, plasma, Midazolam + midostaurin (day 3)
[15] = midazolam study: MZ 4 mg (day 1), MZ 4 mg + Mido 100 mg (day 3), Mido 50 mg twice daily (days 4–6)
[16] = midazolam study: second MZ 4 mg alone (day 8, after Mido)

Compound: CO[C@@H]1[C@H](N(C)C(=O)c2ccccc2)C[C@H]2O[C@]1(C)n1c3ccccc3c3c4c(c5c6ccccc6n2c5c31)C(=O)NC4O (mixture of isomers) [CGP52421]
- IC50 (CYP3A4/5): 1.5 µM
- apparent elimination half-life (t 1/2) [1]: 384 to 744 h
- half-life [1]: > 1 month
- major pathway for elimination [1]: Fecal excretion
- bound to AAG [2]: 88–98%
- IC50 (mutant FLT3): 0.584 µM
- decrease in exposure (AUClast) in midostaurin + rifampicin arm ([3]; compared with midostaurin alone): 2.45 fold
- AUC(0-t) [3, 7]: 14.6 µg·h/mL
- AUC(0-t) ([3]; Rifampicin + midostaurin arm): 5.96 µg·h/mL
- Cmax [3, 7]: 0.196 µg/mL
- Cmax ([3]; Rifampicin + midostaurin arm): 0.128 µg/mL
- half-life [3, 7]: 175 h
- half-life ([3]; Rifampicin + midostaurin arm): 87.1 h
- Tmax [3, 7]: 3 h
- Tmax ([3]; Rifampicin + midostaurin arm): 2.51 h
- median t max prolonged in midostaurin + placebo arm compared with midostaurin + rifampicin arm ([3]; in vivo): 1.2 fold
- Cmax ([4]; Ketoconazole + midostaurin arm): 0.0709 µg/mL
- Cmax [4, 8]: 0.145 µg/mL
- Tmax ([4]; Ketoconazole + midostaurin arm): 120 h
- Tmax [4, 8]: 2 h
- t max, Hodges–Lehmann estimate of median difference (90 % distribution-free CI) ([4]; ketoconazole + midostaurin vs placebo + midostaurin): 116.7 (93.9, 117.9) h

Compound: OCc1ncc2n1-c1ccc(Cl)cc1C(c1ccccc1F)=NC2 [1′-Hydroxymidazolam]
- change in AUCinf [5]: No change
- average decrease in C max [5, 9]: 1.2 fold
- t max, Hodges–Lehmann estimate of median difference (90 % distribution-free CI) ([5]; day 3/day 1 comparison): 0.13 (−0.50 to 1.50)^b h
- average decrease in AUCinf [5, 10]: 1.3 fold
- average decrease in C max [5, 10]: 1.3 fold
- t max, Hodges–Lehmann estimate of median difference (90 % distribution-free CI) ([5]; day 8/day 1 comparison): 0.01 (−0.23 to 0.26)^c h
- AUC0–inf, adjusted geometric mean ([5]; plasma, Midazolam (day 1), midazolam 4 mg alone): 0.01818 µg·h/mL
- AUC0–last, adjusted geometric mean ([5]; plasma, Midazolam (day 1)): 0.01591 µg·h/mL
- C max, adjusted geometric mean ([5]; plasma, Midazolam (day 1)): 0.00583 µg/mL
- t max, median ([5]; plasma, Midazolam (day 1)): 0.50 h
- AUC0–inf, adjusted geometric mean ([5]; plasma, Midazolam (day 8), midazolam 4 mg alone after repeated midostaurin): 0.01374 µg·h/mL
- AUC0–last, adjusted geometric mean ([5]; plasma, Midazolam (day 8)): 0.01257 µg·h/mL
- C max, adjusted geometric mean ([5]; plasma, Midazolam (day 8)): 0.00437 µg/mL
- t max, median ([5]; plasma, Midazolam (day 8)): 0.50 h
- AUC0–inf, adjusted geometric mean ([5]; plasma, Midazolam + midostaurin (day 3), midazolam 4 mg + midostaurin 100 mg): 0.01854 µg·h/mL
- AUC0–last, adjusted geometric mean [5, 11]: 0.01587 µg·h/mL
- C max, adjusted geometric mean [5, 11]: 0.00476 µg/mL

Compound: Cc1ncc2n1-c1ccc(Cl)cc1C(c1ccccc1F)=NC2 [Midazolam]
- change in AUCinf [5]: No change
- average decrease in C max [5, 9]: 1.2 fold
- average decrease in AUCinf [5, 10]: 1.1 fold
- average decrease in C max [5, 10]: 1.1 fold
- t max, Hodges–Lehmann estimate of median difference (90 % distribution-free CI) ([5]; day 8/day 1 comparison): 0.12 (−0.12 to 0.26)^c h
- Tmax ([5]; human, plasma, oral, 4 mg): 0.5 h
- AUC(0-inf) ([5]; human, plasma, oral, 4 mg, plasma, Midazolam (day 1), midazolam 4 mg alone): 0.0497 µg·h/mL
- AUC(0-inf) ([5]; human, plasma, oral, 4 mg, plasma, Midazolam (day 8), midazolam 4 mg alone after repeated midostaurin): 0.047 µg·h/mL
- AUC(0-t) [5, 12]: 0.0431 µg·h/mL
- AUC(0-t) [5, 13]: 0.0408 µg·h/mL
- Cmax [5, 12]: 0.0135 µg/mL
- Cmax [5, 13]: 0.0123 µg/mL
- AUC(0-inf) ([5]; human, plasma, oral, plasma, Midazolam + midostaurin (day 3), midazolam 4 mg + midostaurin 100 mg): 0.0496 µg·h/mL
- AUC(0-t) [5, 14]: 0.0402 µg·h/mL
- Cmax [5, 14]: 0.011 µg/mL
- t max, median ([5]; plasma, Midazolam (day 8)): 0.50 h
- Adverse event: Abdominal distension [6, 15]: 0 n (%)
- Adverse event: Any preferred term [6, 15]: 3 (15.0) n (%)
- Adverse event: Back pain [6, 15]: 0 n (%)
- Adverse event: Chromaturia [6, 15]: 0 n (%)
- Adverse event: Cough [6, 15]: 0 n (%)
- Adverse event: Diarrhea [6, 15]: 0 n (%)
- Adverse event: Discolored feces [6, 15]: 0 n (%)
- Adverse event: Dizziness [6, 15]: 0 n (%)
- Adverse event: Dry skin [6, 15]: 0 n (%)
- Adverse event: Dyspepsia [6, 15]: 0 n (%)
- Adverse event: Feeling cold [6, 15]: 0 n (%)
- Adverse event: Feeling hot [6, 15]: 0 n (%)
- Adverse event: Flatulence [6, 15]: 0 n (%)
- Adverse event: Headache [6, 15]: 2 (10.0) n (%)
- Adverse event: Hot flush [6, 15]: 0 n (%)
- Adverse event: Nasopharyngitis [6, 15]: 0 n (%)
- Adverse event: Nausea [6, 15]: 0 n (%)
- Adverse event: Palpitations [6, 15]: 0 n (%)
- Adverse event: Pharyngolaryngeal pain [6, 15]: 0 n (%)
- Adverse event: Restlessness [6, 15]: 0 n (%)
- Adverse event: Rhinitis [6, 15]: 0 n (%)
- Adverse event: Sleep disorder [6, 15]: 0 n (%)
- Adverse event: Somnolence [6, 15]: 1 (5.0) n (%)
- Adverse event: Vomiting [6, 15]: 0 n (%)
- Adverse event: Abdominal distension [6, 16]: 0 n (%)
- Adverse event: Any preferred term [6, 16]: 3 (16.7) n (%)
- Adverse event: Back pain [6, 16]: 0 n (%)
- Adverse event: Chromaturia [6, 16]: 0 n (%)
- Adverse event: Cough [6, 16]: 0 n (%)
- Adverse event: Diarrhea [6, 16]: 0 n (%)
- Adverse event: Discolored feces [6, 16]: 0 n (%)
- Adverse event: Dizziness [6, 16]: 0 n (%)
- Adverse event: Dry skin [6, 16]: 0 n (%)
- Adverse event: Dyspepsia [6, 16]: 0 n (%)
- Adverse event: Feeling cold [6, 16]: 0 n (%)
- Adverse event: Feeling hot [6, 16]: 0 n (%)
- Adverse event: Flatulence [6, 16]: 0 n (%)
- Adverse event: Headache [6, 16]: 2 (11.1) n (%)
- Adverse event: Hot flush [6, 16]: 0 n (%)
- Adverse event: Nasopharyngitis [6, 16]: 1 (5.6) n (%)
- Adverse event: Nausea [6, 16]: 0 n (%)
- Adverse event: Palpitations [6, 16]: 0 n (%)
- Adverse event: Pharyngolaryngeal pain [6, 16]: 0 n (%)
- Adverse event: Restlessness [6, 16]: 0 n (%)
- Adverse event: Rhinitis [6, 16]: 0 n (%)
- Adverse event: Sleep disorder [6, 16]: 0 n (%)
- Adverse event: Somnolence [6, 16]: 0 n (%)
- Adverse event: Vomiting [6, 16]: 0 n (%)
